These results are taken from patent publication US9974825B2, “Peptides Des-[Asp1]-[Ala1], angiotensin-(1-7) agonist and pharmaceutical compositions for the treatment of diseases” (UNIVERSIDADE FEDERAL DE MINAS GERAIS, priority 2008, dated 2018).

The test system of assay [1] is aorta rings in absence of functional endothelium. In words: Vasorelaxation in aorta rings without functional endothelium. Conditions: vessels not presenting functional endothelium (Mas+/+ and Mas−/−, C57/BI-6 and FVB/N). In kind it is cell-based, mice (C57/BI-6 and FVB/N). The method, then: This example describes the endothelium-dependence of the Ala^1-Ang-(1-7) vasorelaxing activity.
The original rings of the descending thoracic aorta (2 mm), free from adipose tissue and connective tissue, were incubated in gasified solution (95% O2 and 5% CO2) of Krebs-Henseleit (mmol/L): NaCl 110.8, KCl 5.9, NaHCO3 25.0, MgSO4 1.07, CaCl2 2.49, NaH2PO4 2.33 and glucose 11.51, under a temperature of 37° C. and a 0.5 g tension, being equilibrated for 1 hour. The functional presence of endothelium was tested by its relaxing capacity produced by acetylcholine [ACh] (10 μM) on vessels precontracted with fenilefrine (0.3 μM). In accordance with experimental protocols for its absence, the endothelium was removed with a slight friction on the vessel internal surface. Only the vessels showing relaxation by acetylcholine above 70% of extended contraction produced by fenilefrine were taken into account. […]
The Ala^1-Ang-(1-7) vasorelaxing activity was measured in vessels (Mas+/+ and Mas−/−, of lineages C57/BI-6 and FVB/N) in the presence or absence of precontracted functional endothelium (with approximately a 1.0 g tension) and a submaximum concentration of fenilefrine (0.1 μM). […] The vasodilating effects of Ala^1-Ang-(1-7) and Ang-(1-7) were expressed as a relaxation percentage relative to the maximum contraction induced by fenilefrine. […]

Assay [2] addresses Mas receptor. The note with it: Santos et al., PNAS 2003; cited from earlier work.

With “Ala^1-Arg^2-Val^3-Tyr^4-Ile^5-His^6-Pro^7 [Ala^1-Ang-(1-7)]”, the vasodilating effect result in assay [1] was “abolished”.
With “Asp^1-Arg^2-Val^3-Tyr^4-Ile^5-His^6-Pro^7 [Ang-(1-7)]”, the dissociation constant Kd in assay [2] was 0.33 nM.
